Laboratory results from patent US6211181A, “1-Benzenesulfonyl pyrrolidine derivatives as bradykinin receptor antagonists” (Fournier Industrie et Sante, priority 1995, dated 2001).
Structures can show the parent of a compound that is named as a salt.

Molecular target: T1, guinea-pig B2 receptor (Cavia porcellus, UniProt O70526)
T1 construct: Ileum segments are isolated from male guinea-pigs of the Dunkin-Hartley strain; tissue Iffa Credo, l'Arbresle, France (supplier of the animals); host or cells: ileum membranes of male Dunkin-Hartley guinea pigs
T1 sequence (O70526 1-372): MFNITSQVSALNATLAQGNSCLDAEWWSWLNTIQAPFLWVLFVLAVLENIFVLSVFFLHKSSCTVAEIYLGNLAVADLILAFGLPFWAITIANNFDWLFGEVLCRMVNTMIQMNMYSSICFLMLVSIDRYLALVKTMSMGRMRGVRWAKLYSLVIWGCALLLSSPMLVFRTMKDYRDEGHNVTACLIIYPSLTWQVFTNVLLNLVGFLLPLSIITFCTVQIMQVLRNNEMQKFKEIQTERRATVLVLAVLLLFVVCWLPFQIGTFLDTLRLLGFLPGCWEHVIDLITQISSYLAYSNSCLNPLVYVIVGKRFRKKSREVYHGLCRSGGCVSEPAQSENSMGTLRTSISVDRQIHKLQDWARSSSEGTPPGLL
Assay: [3H]-bradykinin binding to guinea-pig ileum membranes
Settings: test compound at 10^-6 M, [3H]-bradykinin 120 pM, 90 min at 20° C., read-out: ACTIVITY % (percentage inhibition of the binding of [3H]-bradykinin)
Protocol: The following pharmacological test is used: Ileum segments are isolated from male guinea-pigs of the Dunkin-Hartley strain (Iffa Credo, l'Arbresle, France) and ground in the following TES buffer: TES 25 mM, 1,10-phenanthroline 1 mM (pH 6.8), bacitracin 140 μg/ml, BSA 1 g/l. The membranes are then isolated by centrifugation (18,000 rpm; 20 min; 4° C.). The binding studies are carried out in the TES buffer using [^3 H]-bradykinin (120 pM) and 50 μg of membrane protein per test (final volume 500 μl) with an equilibrium time of 90 min at 20° C. […] The results obtained from these tests (shown as "activity") are collated in Table I below with reference to the Examples given in the description.

Cc1ccc2cccc(OCc3c(Cl)ccc(S(=O)(=O)N4CCC[C@H]4C(=O)NCCNC(=N)N)c3Cl)c2n1 [Example 16, 1-[[3-[(2-Methylquinolin-8-yl)oxymethyl]-2,4-dichlorophenyl]sulfonyl]-N-[2-[(aminoiminomethyl)amino]ethyl]-2-(S)-pyrrolidinecarboxamide bistrifluoroacetate] and Cc1ccc2cccc(OCc3c(Cl)ccc(S(=O)(=O)N4CCC[C@H]4C(=O)NCCN)c3Cl)c2n1 [Example 3, 1-[[3-[(2-Methylquinolin-8-yl)oxymethyl]-2,4-dichlorophenyl]sulfonyl]-N-(2-aminoethyl)-2-(S)-pyrrolidinecarboxamide] are the same in inhibition at 1 µM: 100% for the first, 100% for the second.

Cc1ccc2cccc(OCc3c(Cl)ccc(S(=O)(=O)N4CCC[C@H]4C(=O)NC4CCNCC4)c3Cl)c2n1 [Example 8, 1-[[3-[(2-Methylquinolin-8-yl)oxymethyl]-2,4-dichlorophenyl]sulfonyl]-N-(piperidin-4-yl)-2-(S)-pyrrolidinecarboxamide dihydrochloride] and Cc1ccc2cccc(OCc3c(Cl)ccc(S(=O)(=O)N4CCC[C@H]4C(=O)NCC4CCNCC4)c3Cl)c2n1 [Example 10, 1-[[3-[(2-Methylquinolin-8-yl)oxymethyl]-2,4-dichlorophenyl]sulfonyl]-N-[(piperidin-4-yl)methyl]-2-(S)-pyrrolidinecarboxamide dihydrochloride] are the same in inhibition at 1 µM: 100% for the first, 100% for the second.

Cc1ccc2cccc(OCc3c(Cl)ccc(S(=O)(=O)N4CCC[C@H]4C(=O)N4CCNCC4)c3Cl)c2n1 [Example 2, 1-[[3-[(2-Methylquinolin-8-yl)oxymethyl]-2,4-dichlorophenyl]sulfonyl]-2-(S)-[(piperazin-1-yl)carbonyl]pyrrolidine] and Cc1cc(C)c2cccc(OCc3c(Cl)ccc(S(=O)(=O)N4CCC[C@H]4C(=O)N4CCNCC4)c3Cl)c2n1 [Example 5, 1-[[3-[(2,4-Dimethylquinolin-8-yl)oxymethyl]-2,4-dichlorophenyl]sulfonyl]-2-(S)-[(piperazin-1-yl)carbonyl]pyrrolidine bistrifluoroacetate] are the same in inhibition at 1 µM: 100% for the first, 100% for the second.

Cc1ccc2cccc(OCc3c(Cl)ccc(S(=O)(=O)N4CCC[C@H]4C(=O)N4CCN(C(=N)N)CC4)c3Cl)c2n1 [Example 24, 1-[[3-[(2-Methylquinolin-8-yl)oxymethyl]-2,4-dichlorophenyl]sulfonyl]-2-(S)-[[4-(aminoiminomethyl)piperazin-1-yl]carbonyl]pyrrolidine dihydrochloride] and Cc1cc(C)c2cccc(OCc3c(Cl)ccc(S(=O)(=O)N4CCC[C@H]4C(=O)N4CCN(C(=N)N)CC4)c3Cl)c2n1 [Example 14, 1-[[3-[(2,4-Dimethylquinolin-8-yl)oxymethyl]-2,4-dichlorophenyl]sulfonyl]-2-(S)-[[4-(aminoiminomethyl)piperazin-1-yl]carbonyl]pyrrolidine bistrifluoroacetate] are the same in inhibition at 1 µM: 98% for the first, 98% for the second.

Going from Cc1cc(C)c2cccc(OCc3c(Cl)ccc(S(=O)(=O)N4C[C@H](O)C[C@H]4C(=O)N4CCN(C(=N)N)CC4)c3Cl)c2n1 [Example 15, 1-[[3-[(2,4-Dimethylquinolin-8-yl)oxymethyl]-2,4-dichlorophenyl]sulfonyl]-2-(S)-[[4-(aminoiminomethyl)piperazin-1-yl]carbonyl]-4-(R)-hydroxypyrrolidine bistrifluoroacetate] to Cc1cc(C)c2cccc(OCc3c(Cl)ccc(S(=O)(=O)N4CCC[C@H]4C(=O)NCCNC(=N)N)c3Cl)c2n1 [Example 19, 1-[[3-[(2,4-Dimethylquinolin-8yl)oxymethyl]-2,4-dichlorophenyl]sulfonyl]-N-[2-[(aminoiminomethyl)amino]ethyl]-2-(S)-pyrrolidinecarboxamide dihydrochloride], the inhibition at 1 µM falls from 100% to 97%.

Cc1ccc2cccc(OCc3c(Cl)ccc(S(=O)(=O)N4CCC[C@H]4C(=O)N4CCN(C(=NC(C)C)NC(C)C)CC4)c3Cl)c2n1 [Example 27, 1-[[3-[(2-Methylquinolin-8-yl)oxymethyl]-2,4-dichlorophenyl]sulfonyl]-2-(S)-[[4-[(1-methylethylamino)(1-methylethylimino)methyl]piperazin-1-yl]-carbonyl]pyrrolidine dihydrochloride] and Cc1ccc2cccc(OCc3c(Cl)ccc(S(=O)(=O)N4CCC[C@H]4C(=O)N4CC(C)N(C(=N)N)C(C)C4)c3Cl)c2n1 (stereo partly drawn) [Example 25, 1-[[3-[(2-Methylquinolin-8yl)oxymethyl]-2,4-dichlorophenyl]sulfonyl]-2-(S)-[[4-(aminoiminomethyl)-3,5-dimethylpiperazin-1-yl]carbonyl]pyrrolidine dihydrochloride] are the same in inhibition at 1 µM: 100% for the first, 100% for the second.

Going from Cc1ccc2cccc(OCc3c(Cl)ccc(S(=O)(=O)N4CCC[C@H]4C(=O)NCCCN)c3Cl)c2n1 [Example 9, 1-[[3-[(2-Methylquinolin-8-yl)oxymethyl]-2,4-dichlorophenyl]sulfonyl]-N-(3-aminopropyl)-2-(S)-pyrrolidinecarboxamide dihydrochloride] to Cc1ccc2cccc(OCc3c(Cl)ccc(S(=O)(=O)N4CCC[C@H]4C(=O)NCC4CCN(C(=N)N)CC4)c3Cl)c2n1 [Example 22, 1-[[3-[(2-Methylquinolin-8-yl)oxymethyl]-2,4-dichlorophenyl]sulfonyl]-N-[[1-(aminoiminomethyl)piperidin-4-yl]methyl]-2-(S)-pyrrolidinecarboxamide dihydrochloride], the inhibition at 1 µM falls from 100% to 98%.

Going from Cc1ccc2cccc(OCc3c(Cl)ccc(S(=O)(=O)N4CCC[C@H]4C(=O)NC4CCN(C(=N)N)CC4)c3Cl)c2n1 [Example 23, 1-[[3-[(2-Methylquinolin-8-yl)oxymethyl]-2,4-dichlorophenyl]sulfonyl]-N-[1-(aminoiminomethyl)piperidin-4-yl]-2-(S)-pyrrolidinecarboxamide dihydrochloride] to Cc1cc(C)c2cccc(OCc3c(Cl)ccc(S(=O)(=O)N4CCC[C@H]4C(=O)NCCCNC(=N)N)c3Cl)c2n1 [Example 20, 1-[[3-[(2,4-Dimethylquinolin-8-yl)oxymethyl]-2,4-dichlorophenyl]sulfonyl]-N-[3-[(aminoiminomethyl)amino]propyl]-2-(S)-pyrrolidinecarboxamide dihydrochloride], the inhibition at 1 µM falls from 100% to 98%.
